Source: US6794169B2, “UDP-N-acetylglucosamine: galactose-β1,3-N-acetylgalactosamine-α-R / (GlcNAc to GalNAc) β1,6-N-acetylglucosaminyltransferase, C2GnT3” (Glycozym ApS, priority 1999, dated 2004)

Columns and labels:
C2GnT1 = molecular target: T1, C2GnT1 (Homo sapiens, UniProt Q02742); experiment: GlcNAc-transferase activity of C2GnT1 with acceptor substrates; format: biochemical
T1 sequence (Q02742 1-428): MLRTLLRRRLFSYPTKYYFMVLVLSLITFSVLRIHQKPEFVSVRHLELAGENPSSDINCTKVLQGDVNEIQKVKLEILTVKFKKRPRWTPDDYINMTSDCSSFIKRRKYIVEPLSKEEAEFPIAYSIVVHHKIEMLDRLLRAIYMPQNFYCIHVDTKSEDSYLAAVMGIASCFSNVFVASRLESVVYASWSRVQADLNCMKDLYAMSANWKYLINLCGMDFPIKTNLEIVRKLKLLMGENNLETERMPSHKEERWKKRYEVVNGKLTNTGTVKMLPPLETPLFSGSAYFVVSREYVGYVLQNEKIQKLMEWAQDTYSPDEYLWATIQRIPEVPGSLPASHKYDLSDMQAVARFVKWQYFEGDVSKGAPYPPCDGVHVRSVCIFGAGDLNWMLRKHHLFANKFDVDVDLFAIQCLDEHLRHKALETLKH
Experimental: (§1) Controls included the pAcGP67-GalNAc-T3-sol (24). The kinetic properties were determined with partially purified enzymes expressed in High Five™ cells. Partial purification was performed by consecutive chromatography on Amberlite IRA-95, DEAE-Sephacryl and SP-Sepharose essentially as described (25; 25).
(§2) Standard assays were performed using culture supernatant from infected cells in 50 μl reaction mixtures containing 100 mM MES (pH 6.5), 0.1% Nonidet P-40, 150 μM UDP-[^14C]-GlcNAc (2,000 cpm/nmol) (Amersham Pharmacia Biotech), and the indicated concentrations of acceptor substrates (Sigma and Toronto Research Laboratories Ltd., see Table I for structures). Reaction products were quantified by chromatography on Dowex AG1-X8.

C2GnT3 = molecular target: T2, C2GnT3 (Homo sapiens, UniProt Q9P109); experiment: GlcNAc-transferase activity of recombinant soluble C2GnT3 with acceptor/donor substrates; format: biochemical; conditions: for Substrate specificity, C2GnT3 activity: partially purified media of infected High Five cells, background subtracted; for C2GnT3 activity with acceptor substrate (in words): as acceptor substrate; for C2GnT3 activity with donor substrate (in words): as donor substrate, data not shown
T2 construct: An expression vector construct designed to encode amino acid residues 39-453 of C2GnT3; gp67 secretion signal of vector pAcGP67A (N); made in house; host or cells: Sf9 insect cells (baculovirus; culture supernatant); High Five cells for kinetic properties (partially purified)
T2 sequence (Q9P109 39-453): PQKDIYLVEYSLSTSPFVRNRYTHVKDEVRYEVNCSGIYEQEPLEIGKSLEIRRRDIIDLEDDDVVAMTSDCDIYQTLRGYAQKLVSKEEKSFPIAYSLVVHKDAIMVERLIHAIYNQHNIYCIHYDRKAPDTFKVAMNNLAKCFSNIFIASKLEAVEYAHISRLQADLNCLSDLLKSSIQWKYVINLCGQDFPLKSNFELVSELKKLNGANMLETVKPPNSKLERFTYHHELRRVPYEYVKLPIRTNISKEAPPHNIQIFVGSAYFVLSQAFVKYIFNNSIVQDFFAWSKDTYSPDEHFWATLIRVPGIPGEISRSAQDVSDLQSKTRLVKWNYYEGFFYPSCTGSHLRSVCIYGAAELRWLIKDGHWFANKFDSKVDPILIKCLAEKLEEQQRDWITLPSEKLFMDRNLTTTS
Description: with BamH1 and EcoRI restriction sites, respectively (FIG. 2). The PCR product was cloned between the BamHI and EcoRI sites of pAcGP67A (PharMingen), and the insert was fully sequenced. pAcGP67-C2GnT3-sol was co-transfected with Baculo-Gold™ DNA (PharMingen) as described previously (23). Recombinant Baculovirus was obtained after two successive amplifications in Sf9 cells grown in serum-containing medium, and titers of virus were estimated by titration in 24-well plates with monitoring of enzyme activities.
as §1, §2

Row | SMILES | Substrate specificity, C2GnT1 activity (C2GnT1; acceptor substrate 2 mM) [nmol/h/mg] | Substrate specificity, C2GnT1 activity (C2GnT1; acceptor substrate 10 mM) [nmol/h/mg] | Substrate specificity, C2GnT3 activity (C2GnT3; acceptor substrate 2 mM) [nmol/h/mg] | Substrate specificity, C2GnT3 activity (C2GnT3; acceptor substrate 10 mM) [nmol/h/mg] | C2GnT3 activity with acceptor substrate (in words) (C2GnT3) | C2GnT3 activity with donor substrate (in words) (C2GnT3) | Substrate inhibition of C2GnT3 enzyme activity (C2GnT3; high acceptor concentrations up to 20 mM)
1 | CC(=O)N[C@H]1[C@H](O[C@H]2[C@@H](O)[C@@H](CO)O[C@@H](O[C@H]3[C@H](O)[C@@H](O)C(O)O[C@@H]3CO)[C@@H]2O)O[C@H](CO)[C@@H](O[C@@H]2O[C@H](CO)[C@H](O)[C@H](O)[C@H]2O)[C@@H]1O (mixture of isomers) [lacto-N-neo-tetraose] | <0.1 | <0.1 | <0.1 | <0.1 | no activity |  | 
2 | CC(=O)N[C@H]1[C@@H](OP(=O)(O)OP(=O)(O)OC[C@H]2O[C@@H](n3ccc(=O)[nH]c3=O)[C@H](O)[C@@H]2O)O[C@H](CO)[C@H](O)[C@@H]1O [UDP-GalNAc] |  |  |  |  |  | no activity | 
3 | CC(=O)N[C@H]1[C@@H](OP(=O)(O)OP(=O)(O)OC[C@H]2O[C@@H](n3ccc(=O)[nH]c3=O)[C@H](O)[C@@H]2O)O[C@H](CO)[C@@H](O)[C@@H]1O [UDP-GlcNAc, UDP-N-acetylglucosamine] |  |  |  |  |  | strict donor substrate specificity | 
4 | CC(=O)N[C@H]1[C@@H](Oc2ccc([N+](=O)[O-])cc2)O[C@H](CO)[C@H](O)[C@@H]1O[C@@H]1O[C@H](CO)[C@H](O)[C@H](O)[C@H]1O [β-D-Gal-(1-3)-α-D-GalNAc-1-p-Nph] | 16.2 | 23.6 | 18.1 | 26.1 |  |  | No substrate inhibition
5 | CC(=O)NC1C(OC2C(O)C(CO)OC(Oc3ccc([N+](=O)[O-])cc3)C2NC(C)=O)OC(CO)C(O)C1O [β-D-GlcNAc-(1-3)-α-D-GalNAc-1-p-Nph] | <0.1 | <0.1 | <0.1 | <0.1 |  |  | 
6 | CO[C@@H]1O[C@H](CO)[C@H](O)[C@H](O[C@@H]2O[C@H](CO)[C@@H](O)[C@H](O)[C@H]2NC(C)=O)[C@H]1O [β-D-GlcNAc-(1-3)-β-D-Gal-1-Me] | <0.1 | <0.1 | <0.1 | <0.1 | no activity |  | 

Continued, values first:

Row | Substrate specificity, C2GnT1 activity (C2GnT1; acceptor substrate 2 mM) [nmol/h/mg] | Substrate specificity, C2GnT1 activity (C2GnT1; acceptor substrate 10 mM) [nmol/h/mg] | Substrate specificity, C2GnT3 activity (C2GnT3; acceptor substrate 2 mM) [nmol/h/mg] | Substrate specificity, C2GnT3 activity (C2GnT3; acceptor substrate 10 mM) [nmol/h/mg] | C2GnT3 activity with acceptor substrate (in words) (C2GnT3) | C2GnT3 activity with donor substrate (in words) (C2GnT3) | Substrate inhibition of C2GnT3 enzyme activity (C2GnT3; high acceptor concentrations up to 20 mM) | SMILES
7 | <0.1 | <0.1 | <0.1 | <0.1 |  |  |  | CC(=O)N[C@H]1C(O)O[C@H](CO)[C@H](O)[C@@H]1O (stereo partly drawn) [D-GalNAc]
8 | <0.1 | <0.1 | <0.1 | <0.1 | no activity |  |  | CC(=O)N[C@H]1[C@@H](Oc2ccc([N+](=O)[O-])cc2)O[C@H](CO)[C@H](O)[C@@H]1O [α-D-GalNAc-1-p-Nph]
9 | 9.6 | 19.0 | 6.6 | 14.3 |  |  |  | CC(=O)N[C@@H]1[C@@H](O[C@@H]2O[C@H](CO)[C@H](O)[C@H](O)[C@H]2O)[C@@H](O)[C@@H](CO)O[C@@H]1O [β-D-Gal-(1-3)-α-D-GalNAc]
